Laboratory results: patent publication US9169355B2, “Biocompatible agent for dispersing nanoparticles into an aqueous medium using mussel adhesive protein-mimetic polymer” (Hanwha Chemical Corporation, priority 2010, dated 2015)

Details: mouse, in vivo

- half-life in blood: prolonged
Substance: Fe3O4
